# From ChEMBL document CHEMBL2363022, “Malaria Box Schistosomiasis Screening Data” (2013)
# Assays:
# Type in all cases: functional
# Parameters in all cases: scale not given here
# [1] = tested on: Schistosoma mansoni
# [2] = tested on: Schistosoma mansoni; remark: listed apart in the source
# [3] = tested on: Schistosoma mansoni; remark: listed apart in the source
Compound,Toxicity [1],Toxicity [2],Toxicity [3]
COc1ccc(C(=O)C(CCC(CNC(C)(C)C)C(=O)c2ccc(OC)cc2)CNC(C)(C)C)cc1 (stereo not given),4,0,3
CCOC(=O)c1cnc2c(C)cc(C)cc2c1Nc1ccc(OC)c(OC)c1,0,0,2
CCc1ccc(Nc2cc(C)nc3nc(C)nn23)cc1,0,0,0
CC(NCc1ccccc1)c1cc(Cl)ccc1O (stereo not given),0,2,0
Cc1ccc2nc(C)cc(Nc3cccc(C(F)(F)F)c3)c2c1.Cl,3,2,2
CN(C)c1ccc(-c2nc3cc(N)ccc3[nH]2)cc1,0,0,0
CCOc1ccccc1NC(=O)CN1CCN(C(=O)c2ccco2)CC1,0,0,0
Cc1ccc(C(=O)c2oc3ccc4c(C)cc(=O)oc4c3c2C)cc1,0,0,0
Br.CCn1c2c(c(=N)c3c1CCC3)CCCC2,0,0,0
CCCc1c(C)nc2ccccc2c1O,0,0,0
CCOC(=O)c1cnc2ccc(Cl)cc2c1NCCCN(C)C,1,1,1
Cc1ccnc(NC(c2cccc(OCc3ccccc3)c2)c2ccc3cccnc3c2O)c1 (stereo not given),4,1,4
CCN(CC)CCNc1ncnc2c1[nH]c1ccc(Cl)cc12,0,0,0
O=C(Nc1ccc(N2CCN(Cc3ccccc3)CC2)cc1)c1cccs1.O=C(O)C(F)(F)F,0,0,0
Oc1c(C(Nc2ccccn2)c2cccc(Oc3ccccc3)c2)ccc2cccnc12 (stereo not given),4,0,4
CCOc1ccc(/C=C/c2nc(=O)c3ccccc3o2)cc1,0,0,0
COc1ccc(C(=O)NC(c2ccc(Cl)cc2Cl)c2cc(Cl)c3cccnc3c2O)cc1 (stereo not given),0,0,0
COc1ccc(-c2nonc2NC(=O)c2cccc(C)c2)cc1OC,0,0,0

Compound,Toxicity [1],Toxicity [2],Toxicity [3]
CCc1c(C)c(=N)c2ccccc2n1C.I,0,0,0
COc1cc(C(=O)ON=C(N)Cc2cccc3ccccc23)cc(OC)c1OC,4,0,3
O=C(Nc1ccc(-c2nc3cc(NC(=O)c4ccc(Cl)cc4)ccc3[nH]2)cc1)c1ccc(Cl)cc1,0,1,0
c1ccc(/C2=N/c3ccccc3/N=C(/c3ccccc3)c3ccccc32)cc1,1,1,1
c1ccc(CNc2nc(Nc3ccccc3)nc3ccccc23)cc1,2,2,2
CCOc1c(Cl)cc(CNCC(O)c2ccccc2)cc1OC (stereo not given),0,0,0
O=C(Nc1ccc(CN2CCOCC2)cc1)c1ccc(-c2cc(Cl)ccc2Cl)o1,0,0,2
Cc1sc(NC(=O)c2ccco2)c(C(c2cccnc2)N2CCC(Cc3ccccc3)CC2)c1C (stereo not given),4,1,4
COc1ccc(-n2ccnc2SCC(=O)Nc2cc(C)ccc2C)c(OC)c1,1,1,1
Cc1cc(C)c2c(c1)OCN(Cc1ccccc1Cl)C2,2,0,0
Cc1c(C)n(Cc2ccc(F)cc2)c2ccc(C(=O)NCc3ccco3)cc12,2,1,2
CCOc1cc2c(cc1OCC)C(c1cc(Cl)c(O)c(OCC)c1)NCC2 (stereo not given),0,0,0
CCOc1ccc(CN2CCN(CC(O)COc3ccc(OCC(O)CN4CCN(Cc5ccc(OCC)cc5)CC4)cc3)CC2)cc1 (stereo not given),4,3,4
OC(CNC1CCCCC1)Cn1c2ccccc2c2ccccc21 (stereo not given),0,0,0
Cc1ccc(Nc2nc(NCCO)c3ccccc3n2)cc1C,1,1,0
CCN(CC)c1cc(C)c2cc(NC(=O)c3cccc(OC)c3)ccc2n1,0,2,0
CCC(c1ccccc1)c1nn2c(-c3cccs3)nnc2s1 (stereo not given),0,0,0
